Laboratory results from ChEMBL document CHEMBL5214900, “Design, Synthesis, and Biological Evaluation of Membrane-Active Bakuchiol Derivatives as Effective Broad-Spectrum Antibacterial Agents” (J Med Chem, 2021).
Values after ≈ are worked out from the molar mass of the structure shown.

Columns and labels:
Pseudomonas aeruginosa = experiment: Antibacterial activity against Pseudomonas aeruginosa ATCC 9027 assessed as inhibition of bacterial growth incubated for 24 hrs by CLSI based broth dilution method; assay type: functional
Acinetobacter baumannii [1] = experiment: Antibacterial activity against Acinetobacter baumannii ATCC 17978 assessed as inhibition of bacterial growth incubated for 24 hrs by CLSI based broth dilution method; assay type: functional
Klebsiella pneumoniae [2] = experiment: Antibacterial activity against Klebsiella pneumoniae ATCC 14581 assessed as inhibition of bacterial growth incubated for 24 hrs by CLSI based broth dilution method; assay type: functional
Staphylococcus aureus [3] = experiment: Antibacterial activity against methicillin-resistant Staphylococcus aureus N315 assessed as inhibition of bacterial growth incubated for 24 hrs by CLSI based broth dilution method; assay type: functional
Acinetobacter baumannii [4] = experiment: Antibacterial activity against Acinetobacter baumannii R2889 assessed as inhibition of bacterial growth incubated for 24 hrs by CLSI based broth dilution method; assay type: functional
Escherichia coli [5] = experiment: Antibacterial activity against Escherichia coli ATCC 25922 assessed as inhibition of bacterial growth incubated for 24 hrs by CLSI based broth dilution method; assay type: functional
Staphylococcus aureus [6] = experiment: Antibacterial activity against methicillin-resistant Staphylococcus aureus NCTC10442 assessed as inhibition of bacterial growth incubated for 24 hrs by CLSI based broth dilution method; assay type: functional
[7] = Hemolytic activity in rabbit RBC measured after 1 hrs by multimode reader assay; assay type: toxicity, cell-based, Oryctolagus cuniculus, Erythrocyte; details: rabbit red blood cells (erythrocytes)
Staphylococcus aureus [8] = experiment: Antibacterial activity against Staphylococcus aureus ATCC 29213 assessed as inhibition of bacterial growth incubated for 24 hrs by CLSI based broth dilution method; assay type: functional
Klebsiella pneumoniae [9] = experiment: Antibacterial activity against Klebsiella pneumoniae ATCC 10031 assessed as inhibition of bacterial growth incubated for 24 hrs by CLSI based broth dilution method; assay type: functional
Staphylococcus aureus [10] = experiment: Antibacterial activity against Staphylococcus aureus ATCC 29213 assessed as fold increase in MIC incubated for 24 hrs in presence of 1 mM Mg2+ by CLSI based broth dilution method; assay type: functional
Staphylococcus aureus [11] = experiment: Antibacterial activity against Staphylococcus aureus NCTC10442 assessed as fold increase in MIC incubated for 24 hrs in presence of 140 mM Na+ by CLSI based broth dilution method; assay type: functional
Escherichia coli [12] = experiment: Antibacterial activity against Escherichia coli ATCC 25922 assessed as fold increase in MIC incubated for 24 hrs in presence of 2.5 mM Ca2+ by CLSI based broth dilution method; assay type: functional
Staphylococcus aureus [13] = experiment: Antibacterial activity against Staphylococcus aureus NCTC10442 assessed as fold increase in MIC incubated for 24 hrs in presence of 4.5 mM K+ by CLSI based broth dilution method; assay type: functional
Acinetobacter baumannii [14] = experiment: Antibacterial activity against Acinetobacter baumannii ATCC 17978 assessed as fold increase in MIC incubated for 24 hrs in presence of 4.5 mM K+ by CLSI based broth dilution method; assay type: functional
Acinetobacter baumannii [15] = experiment: Antibacterial activity against Acinetobacter baumannii ATCC 17978 assessed as fold increase in MIC incubated for 24 hrs in presence of 1 mM Mg2+ by CLSI based broth dilution method; assay type: functional
Escherichia coli [16] = experiment: Antibacterial activity against Escherichia coli ATCC 25922 assessed as fold increase in MIC incubated for 24 hrs in presence of 140 mM Na+ by CLSI based broth dilution method; assay type: functional
Staphylococcus aureus [17] = experiment: Antibacterial activity against Staphylococcus aureus ATCC 29213 assessed as fold increase in MIC incubated for 24 hrs in presence of 4.5 mM K+ by CLSI based broth dilution method; assay type: functional
Acinetobacter baumannii [18] = experiment: Antibacterial activity against Acinetobacter baumannii ATCC 17978 assessed as fold increase in MIC incubated for 24 hrs in presence of 140 mM Na+ by CLSI based broth dilution method; assay type: functional
Escherichia coli [19] = experiment: Antibacterial activity against Escherichia coli ATCC 25922 assessed as fold increase in MIC incubated for 24 hrs in presence of 4.5 mM K+ by CLSI based broth dilution method; assay type: functional
Staphylococcus aureus [20] = experiment: Antibacterial activity against Staphylococcus aureus ATCC 29213 assessed as fold increase in MIC incubated for 24 hrs in presence of 140 mM Na+ by CLSI based broth dilution method; assay type: functional
Staphylococcus aureus [21] = experiment: Antibacterial activity against Staphylococcus aureus NCTC10442 assessed as fold increase in MIC incubated for 24 hrs in presence of 2.5 mM Ca2+ by CLSI based broth dilution method; assay type: functional
Staphylococcus aureus [22] = experiment: Antibacterial activity against Staphylococcus aureus ATCC 29213 assessed as fold increase in MIC incubated for 24 hrs in presence of 2.5 mM Ca2+ by CLSI based broth dilution method; assay type: functional
Escherichia coli [23] = experiment: Antibacterial activity against Escherichia coli ATCC 25922 assessed as fold increase in MIC incubated for 24 hrs in presence of 1 mM Mg2+ by CLSI based broth dilution method; assay type: functional
Acinetobacter baumannii [24] = experiment: Antibacterial activity against Acinetobacter baumannii ATCC 17978 assessed as fold increase in MIC incubated for 24 hrs in presence of 2.5 mM Ca2+ by CLSI based broth dilution method; assay type: functional
Staphylococcus aureus [25] = experiment: Antibacterial activity against Staphylococcus aureus NCTC10442 assessed as fold increase in MIC incubated for 24 hrs in presence of 1 mM Mg2+ by CLSI based broth dilution method; assay type: functional
[26] = Dissociation constant, pKa of compound by potentiometric titration method; assay type: physicochemical

| Structure (SMILES) | MIC (Pseudomonas aeruginosa) [µg/mL] | MIC (Acinetobacter baumannii [1]) [µg/mL] | MIC (Klebsiella pneumoniae [2]) [µg/mL] | MIC (Staphylococcus aureus [3]) [µg/mL] | MIC (Acinetobacter baumannii [4]) [µg/mL] | MIC (Escherichia coli [5]) [µg/mL] | MIC (Staphylococcus aureus [6]) [µg/mL] | HC50 at 1 h [7] [µg/mL] | MIC (Staphylococcus aureus [8]) [µg/mL] | MIC (Klebsiella pneumoniae [9]) [µg/mL] | also measured |
| --- | --- | --- | --- | --- | --- | --- | --- | --- | --- | --- | --- |
| C=C[C@@](C)(/C=C/c1ccc(O)cc1)CCC=C(C)C [BAKUCHIOL] | > 50 | > 50 | > 50 | 3.12 (≈ 12.2 µM) | > 50 | > 100 | 3.12 (≈ 12.2 µM) | 89.7 | 6.25 (≈ 24.4 µM) | 12.5 (≈ 48.8 µM) |  |
| C=C[C@@](C)(/C=C/c1ccc(OCCCCN2CCN(CCCN(C)C)CC2)cc1)CCC=C(C)C | 50 (≈ 104 µM) | 6.25 (≈ 13 µM) | 1.56 (≈ 3.24 µM) | 0.78 (≈ 1.62 µM) | 6.25 (≈ 13 µM) | 3.12 (≈ 6.49 µM) | 3.12 (≈ 6.49 µM) | 52 | 1.56 (≈ 3.24 µM) | 1.56 (≈ 3.24 µM) |  |
| C=C[C@@](C)(/C=C/c1ccc(OCCCCN2CCNCCNCCNCCNCC2)cc1)CCC=C(C)C |  |  |  | 0.78 (≈ 1.48 µM) |  | 6.25 (≈ 11.9 µM) | 1.56 (≈ 2.97 µM) | 75.2 | 1.56 (≈ 2.97 µM) |  | fold change (FC) (Staphylococcus aureus [10]): <2; fold change (FC) (Staphylococcus aureus [11]): <2; fold change (FC) (Escherichia coli [12]): <2; fold change (FC) (Staphylococcus aureus [13]): <2; fold change (FC) (Acinetobacter baumannii [14]): <2; fold change (FC) (Acinetobacter baumannii [15]): <2; fold change (FC) (Escherichia coli [16]): <2; fold change (FC) (Staphylococcus aureus [17]): <2; fold change (FC) (Acinetobacter baumannii [18]): <2; fold change (FC) (Escherichia coli [19]): <2; fold change (FC) (Staphylococcus aureus [20]): <2; fold change (FC) (Staphylococcus aureus [21]): <2; fold change (FC) (Staphylococcus aureus [22]): <2; fold change (FC) (Escherichia coli [23]): <2; fold change (FC) (Acinetobacter baumannii [24]): <2; fold change (FC) (Staphylococcus aureus [25]): <2 |
| C=C[C@@](C)(/C=C/c1ccc(OCCCCNC(=N)N)cc1)CCC=C(C)C |  |  |  | 1.56 (≈ 4.22 µM) |  | 25 (≈ 67.6 µM) | 3.12 (≈ 8.46 µM) | 75.7 | 3.12 (≈ 8.46 µM) |  | pKa [26]: 11.4 |
